Reference: US20230125667A1, “NOVEL TDZD ANALOGS AS AGENTS THAT DELAY, PREVENT, OR REVERSE AGE-ASSOCIATED DISEASES AND AS ANTI-CANCER AND ANTILEUKEMIC AGENTS” (United States Government as represented by the Department …, priority 2020, published 2023)
Like-named read-outs stand apart in the source and are kept apart here.

Columns and labels:
M14 = experiment: NCI-60 growth inhibition: M14 (Melanoma); type: cell-based, human; settings: Homo sapiens
U251 = experiment: NCI-60 growth inhibition: U251 (CNS Cancer); type: cell-based, human; settings: Homo sapiens, U-251
COLO 205 = experiment: NCI-60 growth inhibition: COLO 205 (Colon Cancer); type: cell-based, human; settings: Homo sapiens
MDA-MB-231/ATCC = experiment: NCI-60 growth inhibition: MDA-MB-231/ATCC (Breast Cancer); type: cell-based, human; settings: Homo sapiens
UO-31 = experiment: NCI-60 growth inhibition: UO-31 (Renal Cancer); type: cell-based, human; settings: Homo sapiens
[1] = tested on: MV4-11 cell line (myelomonocytic leukemia); settings: MV4-11 cells
A498 = experiment: NCI-60 growth inhibition: A498 (Renal Cancer); type: cell-based, human; settings: Homo sapiens
BT-549 = experiment: NCI-60 growth inhibition: BT-549 (Breast Cancer); type: cell-based, human; settings: Homo sapiens
OVCAR-5 = experiment: NCI-60 growth inhibition: OVCAR-5 (Ovarian Cancer); type: cell-based, human; settings: Homo sapiens
UACC-62 = experiment: NCI-60 growth inhibition: UACC-62 (Melanoma); type: cell-based, human; settings: Homo sapiens
SNB-19 = experiment: NCI-60 growth inhibition: SNB-19 (CNS Cancer); type: cell-based, human; settings: Homo sapiens
UACC-257 = experiment: NCI-60 growth inhibition: UACC-257 (Melanoma); type: cell-based, human; settings: Homo sapiens
MDA-MB-435 = experiment: NCI-60 growth inhibition: MDA-MB-435 (Melanoma); type: cell-based, human; settings: Homo sapiens
SK-MEL-28 = experiment: NCI-60 growth inhibition: SK-MEL-28 (Melanoma); type: cell-based, human; settings: Homo sapiens
NCI-H23 = experiment: NCI-60 growth inhibition: NCI-H23 (Non-Small-Cell Lung Cancer); type: cell-based, human; settings: Homo sapiens
SK-MEL-5 = experiment: NCI-60 growth inhibition: SK-MEL-5 (Melanoma); type: cell-based, human; settings: Homo sapiens
MDA-MB-468 = experiment: NCI-60 growth inhibition: MDA-MB-468 (Breast Cancer); type: cell-based, human; settings: Homo sapiens; MDA-MB-468 (Breast Cancer); read-out: GI50
SF-539 = experiment: NCI-60 growth inhibition: SF-539 (CNS Cancer); type: cell-based, human; settings: Homo sapiens
MCF7 = experiment: NCI-60 growth inhibition: MCF7 (Breast Cancer); type: cell-based, human; settings: Homo sapiens
RPMI-8226 = experiment: NCI-60 growth inhibition: RPMI-8226 (Leukemia); type: cell-based, human; settings: Homo sapiens
HOP-92 = experiment: NCI-60 growth inhibition: HOP-92 (Non-Small-Cell Lung Cancer); type: cell-based, human; settings: Homo sapiens
RXF 393 = experiment: NCI-60 growth inhibition: RXF 393 (Renal Cancer); type: cell-based, human; settings: Homo sapiens
HT29 = experiment: NCI-60 growth inhibition: HT29 (Colon Cancer); type: cell-based, human; settings: Homo sapiens, HT-29
MALME-3M = experiment: NCI-60 growth inhibition: MALME-3M (Melanoma); type: cell-based, human; settings: Homo sapiens
NCI-H460 = experiment: NCI-60 growth inhibition: NCI-H460 (Non-Small-Cell Lung Cancer); type: cell-based, human; settings: Homo sapiens
HS 578T = experiment: NCI-60 growth inhibition: HS 578T (Breast Cancer); type: cell-based, human; settings: Homo sapiens
SF-268 = experiment: NCI-60 growth inhibition: SF-268 (CNS Cancer); type: cell-based, human; settings: Homo sapiens
SK-MEL-2 = experiment: NCI-60 growth inhibition: SK-MEL-2 (Melanoma); type: cell-based, human; settings: Homo sapiens
CCRF-CEM = experiment: NCI-60 growth inhibition: CCRF-CEM (Leukemia); type: cell-based, human; settings: Homo sapiens
T-47D = experiment: NCI-60 growth inhibition: T-47D (Breast Cancer); type: cell-based, human; settings: Homo sapiens, T47D
SW-620 = experiment: NCI-60 growth inhibition: SW-620 (Colon Cancer); type: cell-based, human; settings: Homo sapiens
TK-10 = experiment: NCI-60 growth inhibition: TK-10 (Renal Cancer); type: cell-based, human; settings: Homo sapiens
PC-3 = experiment: NCI-60 growth inhibition: PC-3 (Prostate Cancer); type: cell-based, human; settings: Homo sapiens
HCT-116 = experiment: NCI-60 growth inhibition: HCT-116 (Colon Cancer); settings: Homo sapiens, HCT-116
CAKI-1 = experiment: NCI-60 growth inhibition: CAKI-1 (Renal Cancer); type: cell-based, human; settings: Homo sapiens
ACHN = experiment: NCI-60 growth inhibition: ACHN (Renal Cancer); type: cell-based, human; settings: Homo sapiens
DU-145 = experiment: NCI-60 growth inhibition: DU-145 (Prostate Cancer); type: cell-based, human; settings: Homo sapiens
LOX IMVI = experiment: NCI-60 growth inhibition: LOX IMVI (Melanoma); type: cell-based, human; settings: Homo sapiens
OVCAR-8 = experiment: NCI-60 growth inhibition: OVCAR-8 (Ovarian Cancer); type: cell-based, human; settings: Homo sapiens
OVCAR-3 = experiment: NCI-60 growth inhibition: OVCAR-3 (Ovarian Cancer); type: cell-based, human; settings: Homo sapiens
MOLT-4 = experiment: NCI-60 growth inhibition: MOLT-4 (Leukemia); type: cell-based, human; settings: Homo sapiens
IGROV1 = experiment: NCI-60 growth inhibition: IGROV1 (Ovarian Cancer); type: cell-based, human; settings: Homo sapiens, IGROV-1
EKVX = experiment: NCI-60 growth inhibition: EKVX (Non-Small-Cell Lung Cancer); type: cell-based, human; settings: Homo sapiens
HCT-15 = experiment: NCI-60 growth inhibition: HCT-15 (Colon Cancer); type: cell-based, human; settings: Homo sapiens
786-0 = experiment: NCI-60 growth inhibition: 786-0 (Renal Cancer); type: cell-based, human; settings: Homo sapiens
OVCAR-4 = experiment: NCI-60 growth inhibition: OVCAR-4 (Ovarian Cancer); type: cell-based, human; settings: Homo sapiens
K-562 = experiment: NCI-60 growth inhibition: K-562 (Leukemia); type: cell-based, human; settings: Homo sapiens, K562
SN12C = experiment: NCI-60 growth inhibition: SN12C (Renal Cancer); type: cell-based, human; settings: Homo sapiens
NCI-H522 = experiment: NCI-60 growth inhibition: NCI-H522 (Non-Small-Cell Lung Cancer); settings: Homo sapiens, NCI-H522
[2] = Ibuprofen-TDZD analogs (Table 3)

C=C1C(=O)O[C@H]2[C@H]1CC/C(COC(=O)NCc1ccc(Cn3c(=O)sn(CCI)c3=O)cc1)=C\CC[C@@]1(C)O[C@@H]21 [BSK-187]
GI50 (M14): 1820 nM
GI50 (U251): 4670 nM
GI50 (COLO 205): 1860 nM
GI50 (MDA-MB-231/ATCC): 1770 nM
GI50 (UO-31): 1650 nM
LD50, 7AAD (μM) 24 h ([1]; MMB-TDZD analogs (Table 2)): 2.37 µM
LD50, Alamar blue (μM) 24 h ([1]; MMB-TDZD analogs (Table 2)): 1.0 µM
LD50, YOPRO (μM) 24 h ([1]; MMB-TDZD analogs (Table 2)): 1.21 µM
GI50 (A498): 4440 nM
GI50 (BT-549): 2400 nM
GI50 (OVCAR-5): 3280 nM
GI50 (UACC-62): 1980 nM
GI50 (SNB-19): 6880 nM
GI50 (UACC-257): 2240 nM
GI50 (MDA-MB-435): 2450 nM
GI50 (SK-MEL-28): 2060 nM
GI50 (NCI-H23): 3460 nM
GI50 (SK-MEL-5): 5370 nM
GI50 (MDA-MB-468): 1250 nM
GI50 (SF-539): 1720 nM
GI50 (MCF7): 1710 nM
GI50 (RPMI-8226): 1980 nM
GI50 (HOP-92): 1380 nM
GI50 (RXF 393): 1610 nM
GI50 (HT29): 2100 nM
GI50 (MALME-3M): 1680 nM
GI50 (NCI-H460): 6420 nM
GI50 (HS 578T): 7290 nM
GI50 (SF-268): 2410 nM
GI50 (SK-MEL-2): 11700 nM
GI50 (CCRF-CEM): 500 nM
GI50 (T-47D): 1320 nM
GI50 (SW-620): 1660 nM
GI50 (TK-10): 1910 nM
GI50 (PC-3): 1750 nM
GI50 (HCT-116): 1760 nM
GI50 (CAKI-1): 3790 nM
GI50 (ACHN): 1890 nM
GI50 (DU-145): 1820 nM
GI50 (LOX IMVI): 1690 nM
GI50 (OVCAR-8): 4550 nM
GI50 (OVCAR-3): 1640 nM
GI50 (MOLT-4): 1350 nM
GI50 (IGROV1): 2080 nM
GI50 (EKVX): 2110 nM
GI50 (HCT-15): 1910 nM
GI50 (786-0): 1820 nM
GI50 (OVCAR-4): 2020 nM
GI50 (K-562): 650 nM
GI50 (SN12C): 2160 nM
GI50 (NCI-H522): 1720 nM

CCCCCn1sc(=O)n(Cc2ccc(CNC(=O)C(C)c3ccc(CC(C)C)cc3)cc2)c1=O (stereo not shown) [BSK-235]
LD50, 7AAD (μM) 24 h [1, 2]: 2.54 µM
LD50, Alamar blue (μM) 24 h [1, 2]: 3.50 µM
LD50, YOPRO (μM) 24 h [1, 2]: 3.2 µM

CC(C)Cc1ccc(C(C)C(=O)NCc2ccc(Cn3c(=O)sn(CCCCl)c3=O)cc2)cc1 (stereo not shown) [BSK-236]
LD50, 7AAD (μM) 24 h [1, 2]: 1.75 µM
LD50, Alamar blue (μM) 24 h [1, 2]: 2.50 µM
LD50, YOPRO (μM) 24 h [1, 2]: 1.77 µM

CCCCn1sc(=O)n(Cc2ccc(CNC(=O)C(C)c3ccc(CC(C)C)cc3)cc2)c1=O (stereo not shown) [BSK-238]
LD50, 7AAD (μM) 24 h [1, 2]: 11.2 µM
LD50, Alamar blue (μM) 24 h [1, 2]: 10.00 µM
LD50, YOPRO (μM) 24 h [1, 2]: 10.9 µM

CC(C)Cc1ccc(C(C)C(=O)NCc2ccc(Cn3c(=O)sn(-c4ccccc4)c3=O)cc2)cc1 (stereo not shown) [BSK-239]
LD50, 7AAD (μM) 24 h [1, 2]: 4.91 µM
LD50, Alamar blue (μM) 24 h [1, 2]: 4.70 µM
LD50, YOPRO (μM) 24 h [1, 2]: 4.24 µM

CC(C)Cc1ccc(C(C)C(=O)NCc2ccc(Cn3c(=O)sn(CCCI)c3=O)cc2)cc1 (stereo not shown) [BSK-260]
LD50, 7AAD (μM) 24 h [1, 2]: 1.42 µM
LD50, Alamar blue (μM) 24 h [1, 2]: 1.49 µM
LD50, YOPRO (μM) 24 h [1, 2]: 1.48 µM

C=C1C(=O)O[C@H]2[C@H]1CC/C(COC(=O)NCc1ccc(Cn3c(=O)sn(-c4ccc(C#N)cc4)c3=O)cc1)=C\CC[C@@]1(C)O[C@@H]21 [BSK-263]
LD50, 7AAD (μM) 24 h ([1]; MMB-TDZD analogs (Table 2)): 0.23 µM
LD50, Alamar blue (μM) 24 h ([1]; MMB-TDZD analogs (Table 2)): 0.75 µM
LD50, YOPRO (μM) 24 h ([1]; MMB-TDZD analogs (Table 2)): 0.13 µM

CC(C)Cc1ccc(C(C)C(=O)NCc2ccc(Cn3c(=O)sn(CCI)c3=O)cc2)cc1 (stereo not shown) [BSK-265]
LD50, 7AAD (μM) 24 h [1, 2]: 2.71 µM
LD50, Alamar blue (μM) 24 h [1, 2]: 2.50 µM
LD50, YOPRO (μM) 24 h [1, 2]: 2.87 µM

CC(C)Cc1ccc(C(C)C(=O)NCc2ccc(Cn3c(=O)sn(-c4ccc(Cl)cc4)c3=O)cc2)cc1 (stereo not shown) [BSK-266]
LD50, 7AAD (μM) 24 h [1, 2]: 10.7 µM
LD50, Alamar blue (μM) 24 h [1, 2]: 12.00 µM
LD50, YOPRO (μM) 24 h [1, 2]: 10.6 µM

CC(C)Cc1ccc(C(C)C(=O)NCc2ccc(Cn3c(=O)sn(-c4ccc(C#N)cc4)c3=O)cc2)cc1 (stereo not shown) [BSK-267]
LD50, 7AAD (μM) 24 h [1, 2]: 14.8 µM
LD50, Alamar blue (μM) 24 h [1, 2]: 12.00 µM
LD50, YOPRO (μM) 24 h [1, 2]: 17.3 µM

C=C1C(=O)O[C@H]2[C@H]1CC/C(COC(=O)NCc1ccc(Cn3c(=O)sn(-c4ccc(Cl)cc4)c3=O)cc1)=C\CC[C@@]1(C)O[C@@H]21 [BSK-268]
LD50, 7AAD (μM) 24 h ([1]; MMB-TDZD analogs (Table 2)): 0.55 µM
LD50, Alamar blue (μM) 24 h ([1]; MMB-TDZD analogs (Table 2)): 0.63 µM
LD50, YOPRO (μM) 24 h ([1]; MMB-TDZD analogs (Table 2)): 0.68 µM
LD50 ([1]; values in text): 130 nM

COc1ccc(-n2sc(=O)n(Cc3ccc(CNC(=O)C(C)c4ccc(CC(C)C)cc4)cc3)c2=O)cc1 (stereo not shown) [BSK-270]
LD50, 7AAD (μM) 24 h [1, 2]: 8.21 µM
LD50, Alamar blue (μM) 24 h [1, 2]: 9.00 µM
LD50, YOPRO (μM) 24 h [1, 2]: 6.14 µM

Cn1sc(=O)n(Cc2ccccc2)c1=O [TDZD-8, 4-benzyl, 2-methyl, 1,2,4-thiadiazolidine, 3,5 dione, reference compound]
LD50, 7AAD (μM) 24 h [1, 2]: 3.61 µM
LD50, 7AAD (μM) 24 h ([1]; MMB-TDZD analogs (Table 2)): 3.61 µM
LD50, Alamar blue (μM) 24 h [1, 2]: 4.5 µM
LD50, Alamar blue (μM) 24 h ([1]; MMB-TDZD analogs (Table 2)): 4.5 µM
LD50, YOPRO (μM) 24 h [1, 2]: 3.29 µM
LD50, YOPRO (μM) 24 h ([1]; MMB-TDZD analogs (Table 2)): 3.29 µM
